Values of other authors in patent publication US12410178B2, “Small cationic ortho-5,15-di-heteroaryl-porphyrin derivatives and their applications in photoinactivation of microorganisms” (UNIVERSIDADE DE COIMBRA, priority 2019, dated 2025).

Assays:
human HeLa cells = conditions: phototoxicity in vitro; read-out: concentration at which 50% of human HeLa cells are killed; cited from earlier work
flies = conditions: in vivo; cited from earlier work

Compound | IC50 (human HeLa cells) [nM] | phototoxicity towards flies (flies)
CCn1cc[n+](CC)c1C1=c2ccc3[n]2[Zn@]24[n]5c(ccc5C(c5ccccc5)=C5C=CC(=[N+]52)C=3)C=C2C=CC1=[N+]24 [Formula (III), zinc(II) phenylporphinate] | 1200 | –
C[n+]1ccc(-c2c3nc(c(-c4cc[n+](C)cc4)c4ccc([nH]4)c(-c4ccccc4)c4nc(c(-c5ccccc5)c5ccc2[nH]5)C=C4)C=C3)cc1 [Formula (IV), meso-(di-cis[4-N-methyl-pyridyl]cis-diphenyl-porphyrin)] | – | phototoxic towards flies
